Measured values taken from DBAASP.
≈ marks a conversion by molar mass, not a printed value.

How the values were obtained:
Assay in all cases: ≥ marks a high value that may be exact or a test limit, other limits are often not marked, values filed in µg/mL are converted to µM
[1] = tested on: Staphylococcus aureus ATCC 29213
[2] = tested on: Pseudomonas aeruginosa CICC 11421
[3] = tested on: Escherichia coli ATCC 25922
[4] = tested on: Pseudomonas aeruginosa CICC 11411
[5] = tested on: Pseudomonas aeruginosa CICC 21630
[6] = tested on: Pseudomonas aeruginosa 21328
[7] = tested on: Pseudomonas aeruginosa CICC 21625
[8] = tested on: Pseudomonas aeruginosa CICC 11431
[9] = tested on: Pseudomonas aeruginosa CICC 10419
[10] = tested on: Pseudomonas aeruginosa 25349
[11] = tested on: Bacillus licheniformis ATCC 14580
[12] = tested on: Bacillus cereus ATCC 14579
[13] = tested on: Bacillus subtilis ATCC 6051
[14] = tested on: Pseudomonas aeruginosa PAO1
[15] = tested on: Proteus mirabilis ATCC 35659
[16] = tested on: Enterococcus faecium 5F-10
[17] = tested on: Bacillus amyloliquefaciens ATCC 23842
[18] = tested on: Enterococcus faecalis 1F-1
[19] = tested on: Salmonella enterica ATCC H9812

SMILES	MIC [1] [µM]	MIC [2] [µM]	MIC [3] [µM]	MIC [4] [µM]	MIC [5] [µM]	MIC [6] [µM]	MIC [7] [µM]	MIC [8] [µM]	MIC [9] [µM]	MIC [10] [µM]	MIC [11] [µM]	MIC [12] [µM]	MIC [13] [µM]	MIC [14] [µM]	MIC [15] [µM]	MIC [16] [µM]	MIC [17] [µM]	MIC [18] [µM]	MIC [19] [µM]
CC(C)C[C@H](NC(=O)[C@H](CCCN=C(N)N)NC(=O)[C@H](CCCN=C(N)N)NC(=O)[C@H](CC(C)C)NC(=O)[C@H](CCCN=C(N)N)NC(=O)[C@H](CCCN=C(N)N)NC(=O)[C@H](CCCN=C(N)N)NC(=O)[C@H](Cc1c[nH]c2ccccc12)NC(=O)[C@H](Cc1c[nH]c2ccccc12)NC(=O)[C@H](Cc1c[nH]c2ccccc12)NC(=O)[C@H](CCCN=C(N)N)NC(=O)[C@H](CCCN=C(N)N)NC(=O)[C@H](CCCN=C(N)N)NC(=O)[C@H](CC(C)C)NC(=O)[C@H](CCCN=C(N)N)NC(=O)[C@H](CCCN=C(N)N)NC(=O)[C@@H](N)CC(C)C)C(N)=O [LRRLRRRWWWRRRLRRL]	3.09 (≈ 8 µg/mL)	3.09 (≈ 8 µg/mL)	1.54 (≈ 4 µg/mL)	1.54 (≈ 4 µg/mL)	1.54 (≈ 4 µg/mL)	1.54 (≈ 4 µg/mL)	3.09 (≈ 8 µg/mL)	1.54 (≈ 4 µg/mL)	3.09 (≈ 8 µg/mL)	1.54 (≈ 4 µg/mL)	–	–	–	–	–	–	–	–	–
CC(C)C[C@H](NC(=O)[C@H](CCC(=O)O)NC(=O)[C@H](CC(=O)O)NC(=O)[C@@H](NC(=O)[C@H](CCCN=C(N)N)NC(=O)[C@H](CO)NC(=O)[C@@H](N)CC(C)C)C(C)C)C(=O)O [LSRVDEL]	> 154	–	> 154	–	–	–	–	–	–	–	≥ 154	≥ 154	≥ 154	> 154	≥ 154	≥ 154	≥ 154	≥ 154	≥ 154
CC(C)C[C@H](N)C(=O)N[C@@H](CO)C(=O)N[C@@H](CCCN=C(N)N)C(=O)N[C@H](C(=O)N[C@@H](CC(=O)O)C(=O)O)C(C)C [LSRVD]	> 217	–	109 (≈ 64 µg/mL)	–	–	–	–	–	–	–	≥ 217	≥ 217	≥ 217	> 217	≥ 217	≥ 217	≥ 217	≥ 217	≥ 109
